Literature values, collected in patent US12697343B2, “Intravenous istaroxime for the treatment of acute heart failure” (Seismic Pharmaceuticals Operations LLC, priority 2021, dated 2026).
Where a name gives a salt, the structure may show the parent alone.

Test system: dogs with chronic ischemic heart failure
Details: cited from earlier work

In the case of `C[C@]12CCC(=NOCCN)C[C@@H]1C(=O)C[C@@H]1[C@@H]2CC[C@]2(C)C(=O)CC[C@@H]12` [Istaroxime, (E,Z)-3-((2-aminoethoxy)imino)androstane-6,17-dione hydrochloride], the “myocardial relaxation (e′ diastolic velocity, tissue Doppler)” value (compared to dobutamine) is listed as “improved myocardial relaxation” and the peak heart rate (compared with dobutamine) is listed as “significantly lower”.
